This is an account of results in patent US10758534B2 (Vertex Pharmaceuticals Incorporated, priority 2014, dated 2020).

The target in this test is T1, F508del (Homo sapiens, UniProt P13569, DEL508-508).
T1 construct: expressed in transfected cells
T1 sequence (P13569 with tags, fused parts or gaps DEL508-508): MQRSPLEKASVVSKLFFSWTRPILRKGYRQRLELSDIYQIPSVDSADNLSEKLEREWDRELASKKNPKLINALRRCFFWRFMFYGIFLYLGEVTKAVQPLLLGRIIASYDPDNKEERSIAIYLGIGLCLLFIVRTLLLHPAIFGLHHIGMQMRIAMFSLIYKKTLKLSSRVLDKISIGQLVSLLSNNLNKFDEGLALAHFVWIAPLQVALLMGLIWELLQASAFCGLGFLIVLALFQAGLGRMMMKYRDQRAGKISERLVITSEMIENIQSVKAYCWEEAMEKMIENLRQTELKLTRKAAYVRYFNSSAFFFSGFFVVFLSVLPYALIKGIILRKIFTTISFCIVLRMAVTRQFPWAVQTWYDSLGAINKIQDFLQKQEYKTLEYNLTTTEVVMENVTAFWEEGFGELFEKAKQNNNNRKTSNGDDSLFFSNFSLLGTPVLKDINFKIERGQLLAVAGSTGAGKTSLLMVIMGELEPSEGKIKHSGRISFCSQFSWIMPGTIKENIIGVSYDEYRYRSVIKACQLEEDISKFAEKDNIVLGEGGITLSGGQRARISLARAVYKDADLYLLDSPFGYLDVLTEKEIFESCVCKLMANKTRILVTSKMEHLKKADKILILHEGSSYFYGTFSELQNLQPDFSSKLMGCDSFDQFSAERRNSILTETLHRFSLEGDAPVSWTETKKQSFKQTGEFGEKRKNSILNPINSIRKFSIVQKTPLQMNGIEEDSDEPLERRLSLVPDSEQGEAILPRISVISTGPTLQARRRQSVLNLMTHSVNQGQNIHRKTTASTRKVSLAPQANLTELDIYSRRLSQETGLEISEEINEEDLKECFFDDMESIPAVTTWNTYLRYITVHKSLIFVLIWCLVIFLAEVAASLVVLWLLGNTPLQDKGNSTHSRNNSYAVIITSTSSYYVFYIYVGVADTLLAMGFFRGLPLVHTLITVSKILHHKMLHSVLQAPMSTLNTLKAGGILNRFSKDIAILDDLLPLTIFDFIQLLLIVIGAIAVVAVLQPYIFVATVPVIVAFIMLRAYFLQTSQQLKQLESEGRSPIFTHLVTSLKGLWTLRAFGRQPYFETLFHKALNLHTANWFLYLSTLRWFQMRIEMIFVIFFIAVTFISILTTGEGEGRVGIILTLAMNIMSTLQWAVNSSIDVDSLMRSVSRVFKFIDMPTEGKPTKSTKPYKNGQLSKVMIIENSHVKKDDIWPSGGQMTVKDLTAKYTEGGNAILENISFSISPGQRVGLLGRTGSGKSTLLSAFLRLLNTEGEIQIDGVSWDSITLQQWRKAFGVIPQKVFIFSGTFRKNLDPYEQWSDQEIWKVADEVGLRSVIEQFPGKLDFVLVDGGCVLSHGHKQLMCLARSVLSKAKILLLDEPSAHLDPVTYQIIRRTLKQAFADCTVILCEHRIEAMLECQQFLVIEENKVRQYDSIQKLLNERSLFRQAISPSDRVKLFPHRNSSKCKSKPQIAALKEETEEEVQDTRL
Briefly: Protocol 1: membrane potential optical assay (FLIPR III, voltage sensing dye), identification of potentiator compounds. The class given is cell-based. The conditions noted are these: Table 3, compounds of Table 1. A digest of the protocol:
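Gating potentiation is read as a membrane-potential fluorescence change (FLIPR III, voltage-sensing dye) after one forskolin addition under a Cl− gradient, with gluconate replacing chloride, pH 7.4. Cells are F508del-expressing NIH3T3 mouse fibroblasts held 24 h at 27 °C and exposed to compound before dye loading.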
For `CC(C)COc1cc(F)cc(-c2ccc(C(=O)NS(=O)(=O)N3CCC(N)C3)c(N3CC(C)CC3(C)C)n2)c1` (stereo not shown) [Compound 1467, N-(3-aminopyrrolidin-1-yl)sulfonyl-6-(3-fluoro-5-isobutoxy-phenyl)-2-(2,2,4-trimethylpyrrolidin-1-yl)pyridine-3-carboxamide], the EC30 entry is given as “+++ (“+++” means <3 uM)”.

For `CC1CN(c2ncc(-c3cccc(C#N)c3)cc2C(=O)NS(=O)(=O)c2cccc(N)n2)C(C)(C)C1` (stereo not shown) [Compound 1849, N-[(6-amino-2-pyridyl)sulfonyl]-5-(3-cyanophenyl)-2-(2,2,4-trimethylpyrrolidin-1-yl)pyridine-3-carboxamide], the EC30 entry was “++ (“++” means between 3 uM and 10 uM)”. As for `CCOc1cccc2c1CN(Cc1c(C)cc(C)cc1C)C2(C)C(=O)NS(=O)(=O)c1cccc(OC)c1` (stereo not shown) [Compound 1470, 4-ethoxy-N-(3-methoxyphenyl)sulfonyl-1-methyl-2-[(2,4,6-trimethylphenyl)methyl]isoindoline-1-carboxamide], the entry is “+++ (“+++” means <3 uM)”; as for `CC(C)COc1cc(F)cc(-c2ccc(C(=O)NS(=O)(=O)c3cccc(N)n3)c(OCCc3cccnc3)n2)c1` [Compound 1654, N-[(6-amino-2-pyridyl)sulfonyl]-6-(3-fluoro-5-isobutoxy-phenyl)-2-[2-(3-pyridyl)ethoxy]pyridine-3-carboxamide], “+++ (“+++” means <3 uM)”; as for `COc1cc(-c2ccc(C(=O)NS(=O)(=O)c3ccc[nH]c3=O)c(N3C[C@@H](C)CC3(C)C)n2)ccc1F` [Compound 1780, 6-(4-fluoro-3-methoxy-phenyl)-N-[(2-oxo-1H-pyridin-3-yl)sulfonyl]-2-[(4S)-2,2,4-trimethylpyrrolidin-1-yl]pyridine-3-carboxamide], “++ (“++” means between 3 uM and 10 uM)”.

Take `CC(C)COc1cc(F)cc(-c2ccc(C(=O)NS(=O)(=O)c3ccn[nH]3)c(N3CCC(F)(F)CC3)n2)c1` [Compound 1006, 2-(4,4-difluoro-1-piperidyl)-6-(3-fluoro-5-isobutoxy-phenyl)-N-(1H-pyrazol-5-ylsulfonyl)pyridine-3-carboxamide]: the EC30 entry is recorded as “+++ (“+++” means <3 uM)”. For the compound `COc1ccc(C(=O)NS(=O)(=O)c2cccc(N)n2)c(N2C[C@@H](C)CC2(C)C)n1` [Compound 1536, N-[(6-amino-2-pyridyl)sulfonyl]-6-methoxy-2-[(4S)-2,2,4-trimethylpyrrolidin-1-yl]pyridine-3-carboxamide], the EC30 entry was “++ (“++” means between 3 uM and 10 uM)”.

As for `CC(=O)Nc1ncccc1S(=O)(=O)NC(=O)c1ccc(-c2ccc(OC(C)C)nc2)nc1N1C[C@@H](C)CC1(C)C` [Compound 1976, N-[(2-acetamido-3-pyridyl)sulfonyl]-6-(6-isopropoxy-3-pyridyl)-2-[(4S)-2,2,4-trimethylpyrrolidin-1-yl]pyridine-3-carboxamide], the EC30 entry is “+++ (“+++” means <3 uM)”.

Turning to `C[C@@H]1CN(c2ncccc2C(=O)NS(=O)(=O)c2cccc(N)n2)C(C)(C)C1` [Compound 946, N-[(6-amino-2-pyridyl)sulfonyl]-2-[(4S)-2,2,4-trimethylpyrrolidin-1-yl]pyridine-3-carboxamide], the EC30 result was “++ (“++” means between 3 uM and 10 uM)”. Next, `Cc1nc(OCC(C)C)ccc1-c1ccc(C(=O)NS(=O)(=O)c2cccc(N)n2)c(N2[C@H](C)CC[C@@H]2C)n1` [Compound 1537, N-[(6-amino-2-pyridyl)sulfonyl]-2-[(2R,5S)-2,5-dimethylpyrrolidin-1-yl]-6-(6-isobutoxy-2-methyl-3-pyridyl)pyridine-3-carboxamide]: “+++ (“+++” means <3 uM)”. Next, `C[C@@H]1CN(c2nc(C3CCOCC3)ccc2C(=O)NS(=O)(=O)c2cccc(N)n2)C(C)(C)C1` [Compound 1595, N-[(6-amino-2-pyridyl)sulfonyl]-6-tetrahydropyran-4-yl-2-[(4S)-2,2,4-trimethylpyrrolidin-1-yl]pyridine-3-carboxamide]: “+++ (“+++” means <3 uM)”; `Cc1ccc(Oc2nc(-c3cc(F)cc(OC(C)C)c3)ccc2C(=O)NS(=O)(=O)c2cccc(N)n2)c(C)c1` [Compound 1150, N-[(6-amino-2-pyridyl)sulfonyl]-2-(2,4-dimethylphenoxy)-6-(3-fluoro-5-isopropoxy-phenyl)pyridine-3-carboxamide]: “+++ (“+++” means <3 uM)”.

Turning to `CC(C)Oc1ccc(-c2ccc(C(=O)NS(=O)(=O)c3cccc(N)n3)c(N3CCC(C)C(C)C3)n2)cn1` (stereo not shown) [Compound 979, N-[(6-amino-2-pyridyl)sulfonyl]-2-(3,4-dimethyl-1-piperidyl)-6-(6-isopropoxy-3-pyridyl)pyridine-3-carboxamide], the EC30 result is listed as “+++ (“+++” means <3 uM)”. With `Cc1cc(C)c(Oc2ncc(-c3ccccc3C(C)C)cc2C(=O)NS(=O)(=O)c2cccc(N)n2)c(C)c1` [Compound 865, N-[(6-amino-2-pyridyl)sulfonyl]-5-(2-isopropylphenyl)-2-(2,4,6-trimethylphenoxy)pyridine-3-carboxamide], the EC30 entry is “+++ (“+++” means <3 uM)”. As for `CCOc1cccc2c1CN(Cc1c(C)cccc1F)C2(C)C(=O)NS(=O)(=O)c1cccc(N)n1` (stereo not shown) [Compound 1392, N-[(6-amino-2-pyridyl)sulfonyl]-4-ethoxy-2-[(2-fluoro-6-methyl-phenyl)methyl]-1-methyl-isoindoline-1-carboxamide], the entry is “+++ (“+++” means <3 uM)”; as for `CC(C)COc1cc(F)cc(-c2ccc(C(=O)NS(=O)(=O)c3cccc(N)n3)c(N(C)CC3(C)CC3)n2)c1` [Compound 1009, N-[(6-amino-2-pyridyl)sulfonyl]-6-(3-fluoro-5-isobutoxy-phenyl)-2-[methyl-[(1-methylcyclopropyl)methyl]amino]pyridine-3-carboxamide], “+++ (“+++” means <3 uM)”. Regarding `CC(C)COc1cc(F)cc(-c2ccc(C(=O)NS(=O)(=O)N3CCC[C@H](N)C3)c(N3C[C@@H](C)CC3(C)C)n2)c1` [Compound 1435, N—[[(3S)-3-amino-1-piperidyl]sulfonyl]-6-(3-fluoro-5-isobutoxy-phenyl)-2-[(4S)-2,2,4-trimethylpyrrolidin-1-yl]pyridine-3-carboxamide], the EC30 entry is “+++ (“+++” means <3 uM)”. In the case of `C[C@@H]1CN(c2nc(/C=C/C3CC3)ccc2C(=O)NS(=O)(=O)c2cccc(N)n2)C(C)(C)C1` [Compound 1379, N-[(6-amino-2-pyridyl)sulfonyl]-6-[(E)-2-cyclopropylvinyl]-2-[(4S)-2,2,4-trimethylpyrrolidin-1-yl]pyridine-3-carboxamide], the EC30 entry was “+++ (“+++” means <3 uM)”.

As to `CC(C)COc1cc(F)cc(-c2ccc(C(=O)NS(=O)(=O)c3cccc(N)n3)c(OCCCc3ccccn3)n2)c1` [Compound 1693, N-[(6-amino-2-pyridyl)sulfonyl]-6-(3-fluoro-5-isobutoxy-phenyl)-2-[3-(2-pyridyl)propoxy]pyridine-3-carboxamide], the EC30 entry is given as “+++ (“+++” means <3 uM)”. Regarding `CCc1ccc(C(=O)NS(=O)(=O)c2cccc(N)n2)c(N2C[C@@H](C)CC2(C)C)n1` [Compound 1507, N-[(6-amino-2-pyridyl)sulfonyl]-6-ethyl-2-[(4S)-2,2,4-trimethylpyrrolidin-1-yl]pyridine-3-carboxamide], the EC30 result is “++ (“++” means between 3 uM and 10 uM)”. As for `Cc1cc(C)c(Oc2nc(-c3cccc(OCC(C)C)c3F)ccc2C(=O)NS(=O)(=O)c2ccc[nH]c2=O)c(C)c1` [Compound 804, 6-(2-fluoro-3-isobutoxy-phenyl)-N-[(2-oxo-1H-pyridin-3-yl)sulfonyl]-2-(2,4,6-trimethylphenoxy)pyridine-3-carboxamide], the entry is “+++ (“+++” means <3 uM)”. Consider `Cc1ccc(-c2ccc(C(=O)NS(=O)(=O)c3cccnc3N)c(N3C[C@@H](C)CC3(C)C)n2)c(C)c1` [Compound 1871, N-[(2-amino-3-pyridyl)sulfonyl]-6-(2,4-dimethylphenyl)-2-[(4S)-2,2,4-trimethylpyrrolidin-1-yl]pyridine-3-carboxamide], for which the EC30 result is “+++ (“+++” means <3 uM)”. On to `Cc1cc(C)c(Oc2nc(-c3ccccc3C)ccc2C(=O)NS(=O)(=O)c2cccc(N)n2)c(C)c1` [Compound 1120, N-[(6-amino-2-pyridyl)sulfonyl]-6-(o-tolyl)-2-(2,4,6-trimethylphenoxy)pyridine-3-carboxamide], for which the EC30 result is listed as “+++ (“+++” means <3 uM)”.

Take `CC1CN(c2ncccc2C(=O)NS(=O)(=O)c2cccc(OC3CCCCC3)n2)C(C)(C)C1` (stereo not shown) [Compound 1908, N—[[6-(cyclohexoxy)-2-pyridyl]sulfonyl]-2-(2,2,4-trimethylpyrrolidin-1-yl)pyridine-3-carboxamide]: the EC30 result is given as “+++ (“+++” means <3 uM)”. Turning to `CC1CN(c2ncccc2C(=O)NS(=O)(=O)c2cccc(OC(C)C3CCCCC3)n2)C(C)(C)C1` (stereo not shown) [Compound 1919, N—[[6-(1-cyclohexylethoxy)-2-pyridyl]sulfonyl]-2-(2,2,4-trimethylpyrrolidin-1-yl)pyridine-3-carboxamide], the EC30 entry is listed as “+++ (“+++” means <3 uM)”. `CCOc1ccc(C)cc1-c1ccc(C(=O)NS(=O)(=O)c2cccnc2N)c(N2C[C@@H](C)CC2(C)C)n1` [Compound 1964, N-[(2-amino-3-pyridyl)sulfonyl]-6-(2-ethoxy-5-methyl-phenyl)-2-[(4S)-2,2,4-trimethylpyrrolidin-1-yl]pyridine-3-carboxamide]: the EC30 entry is on record as “+++ (“+++” means <3 uM)”. As for `CC(Oc1nc(N2C[C@@H](C)CC2(C)C)c(C(=O)NS(=O)(=O)c2cccc(N)n2)cc1F)C1CCOCC1` (stereo partly drawn) [Compound 1891, N-[(6-amino-2-pyridyl)sulfonyl]-5-fluoro-6-(1-tetrahydropyran-4-ylethoxy)-2-[(4S)-2,2,4-trimethylpyrrolidin-1-yl]pyridine-3-carboxamide], the entry is “+++ (“+++” means <3 uM)”; as for `CC(C)COc1cc(F)cc(-c2ccc(C(=O)NS(=O)(=O)c3ccn[nH]3)c(N3CCC(C)(C)C3C)n2)c1` (stereo not shown) [Compound 952, 6-(3-fluoro-5-isobutoxy-phenyl)-N-(1H-pyrazol-5-ylsulfonyl)-2-(2,3,3-trimethylpyrrolidin-1-yl)pyridine-3-carboxamide], “+++ (“+++” means <3 uM)”.
